Test results from PMC4186856, “Structural Basis for Resistance to Diverse Classes of NAMPT Inhibitors” (PLoS ONE, 2014).

What was measured:
[1] = target: T1, WT NAMPT (Homo sapiens, UniProt P43490); experiment: NAMPT enzymatic inhibition, wild-type protein (RapidFire/MS detection of NMN); details: purified wild-type NAMPT 30 nM; 1 µM NAM, 100 µM PRPP, 2.5 mM ATP; read-out: Biochemical IC50, WT
T1 construct: An expression construct for full length human (XP_540386) NAMPT was constructed using pET21B; His6 (C); made in house; host or cells: E. coli Rosetta (DE3)

[2] = target: T2, NAMPT H191R (Homo sapiens, UniProt P43490, H191R); experiment: NAMPT enzymatic inhibition, H191R mutant protein; details: purified H191R NAMPT 30 nM; 1 µM NAM, 100 µM PRPP, 2.5 mM ATP; read-out: Biochemical IC50, H191R
T2 construct: An expression construct for full length human (XP_540386) NAMPT was constructed using pET21B; His6 (C); made in house; host or cells: E. coli Rosetta (DE3)

[3] = target: T3, NAMPT G217R (Homo sapiens, UniProt P43490, G217R); experiment: NAMPT enzymatic inhibition, G217R mutant protein; details: purified G217R NAMPT 30 nM; 1 µM NAM, 100 µM PRPP, 2.5 mM ATP; read-out: Biochemical IC50, G217R
T3 construct: An expression construct for full length human (XP_540386) NAMPT was constructed using pET21B; His6 (C); made in house; host or cells: E. coli Rosetta (DE3)

[4] = target: T4, NAMPT G217A (Homo sapiens, UniProt P43490, G217A); experiment: NAMPT enzymatic inhibition, G217A mutant protein; details: purified G217A NAMPT 30 nM; 1 µM NAM, 100 µM PRPP, 2.5 mM ATP; read-out: Biochemical IC50, G217A
T4 construct: An expression construct for full length human (XP_540386) NAMPT was constructed using pET21B; His6 (C); made in house; host or cells: E. coli Rosetta (DE3)

[5] = target: T5, NAMPT G217V (Homo sapiens, UniProt P43490, G217V); experiment: NAMPT enzymatic inhibition, G217V mutant protein; details: purified G217V NAMPT 30 nM; 1 µM NAM, 100 µM PRPP, 2.5 mM ATP; read-out: Biochemical IC50, G217V
T5 construct: An expression construct for full length human (XP_540386) NAMPT was constructed using pET21B; His6 (C); made in house; host or cells: E. coli Rosetta (DE3)

[6] = target: T6, NAMPT S165F (Homo sapiens, UniProt P43490, S165F); experiment: NAMPT enzymatic inhibition, S165F mutant protein; details: purified S165F NAMPT 30 nM; 1 µM NAM, 100 µM PRPP, 2.5 mM ATP; read-out: Biochemical IC50, S165F
T6 construct: An expression construct for full length human (XP_540386) NAMPT was constructed using pET21B; His6 (C); made in house; host or cells: E. coli Rosetta (DE3)

[7] = target: T7, NAMPT S165Y (Homo sapiens, UniProt P43490, S165Y); experiment: NAMPT enzymatic inhibition, S165Y mutant protein; details: purified S165Y NAMPT 50 nM; 1 µM NAM, 100 µM PRPP, 2.5 mM ATP; read-out: Biochemical IC50, S165Y
T7 construct: An expression construct for full length human (XP_540386) NAMPT was constructed using pET21B; His6 (C); made in house; host or cells: E. coli Rosetta (DE3)

[8] = test system: 293T cells expressing NAMPT S165F; experiment: Response of 293T cells expressing NAMPT S165F; format: cell-based; details: NAMPT S165F expressed in 293T cells
[9] = test system: 293T cells expressing NAMPT S165Y; experiment: Response of 293T cells expressing NAMPT S165Y; format: cell-based; details: NAMPT S165Y expressed in 293T cells
[10] = test system: NCI-H460 tumor xenografts; experiment: NCI-H460 parental xenograft efficacy; format: in vivo, mice; details: 100 mg/kg, oral, QD for 7 days, p = 0.007 vs. vehicle
[11] = test system: NCI-H460 S165Y tumor xenografts; experiment: NCI-H460 S165Y mutant xenograft efficacy; details: oral QD, also at higher doses
[12] = test system: NCI-H460 cell line; experiment: Cellular IC50 in parental NCI-H460 cell line; format: cell-based; details: Homo sapiens, read-out: Parental GNE-618 IC50, NAPRT1 negative
[13] = test system: RD cell line with the S165F mutation; details: RD parent and S165F resistant line, ± 10 µM nicotinic acid
[14] = Tolerability in xenograft-bearing mice; format: in vivo; details: doses tested in NCI-H460 parental and S165Y mutant models, oral QD 7 days
[15] = test system: RD cell line; experiment: Cellular IC50 in parental RD cell line; format: cell-based; details: Homo sapiens, read-out: Parental GNE-618 IC50, NAPRT1 negative
[16] = test system: NCI-H520 cell line; experiment: Cellular IC50 in parental NCI-H520 cell line; format: cell-based; details: Homo sapiens, read-out: Parental GNE-618 IC50, NAPRT1 positive
[17] = test system: Mia-Paca2 cell line; experiment: Cellular IC50 in parental Mia-Paca2 cell line; format: cell-based; details: Homo sapiens, MIA PaCa-2, read-out: Parental GNE-618 IC50, NAPRT1 negative
[18] = test system: RD cell line harboring only the D93 deletion; experiment: Cellular IC50 shift, RD resistant line (earlier passage) with D93 deletion only; format: cell-based; details: cell line carrying D93del
[19] = test system: cell lines carrying S165Y (NCI-H460); experiment: Cellular IC50 shift, resistant cell line carrying S165Y; format: cell-based
[20] = test system: GNE-618 resistant cell lines harboring mutations other than D93del only or S165Y; experiment: Cellular IC50 shift, resistant cell lines harboring the other mutations; format: cell-based; details: cell lines harboring the other mutations (not D93del only or S165Y)
[21] = test system: GNE-618 resistant cell lines; experiment: Total cellular NAD in GNE-618 resistant cell lines; format: cell-based; details: after GNE-618 at 100-fold the parental line IC50; all resistant lines except those harboring only D93del or S165Y

T6 sequence (P43490 whole entry S165F): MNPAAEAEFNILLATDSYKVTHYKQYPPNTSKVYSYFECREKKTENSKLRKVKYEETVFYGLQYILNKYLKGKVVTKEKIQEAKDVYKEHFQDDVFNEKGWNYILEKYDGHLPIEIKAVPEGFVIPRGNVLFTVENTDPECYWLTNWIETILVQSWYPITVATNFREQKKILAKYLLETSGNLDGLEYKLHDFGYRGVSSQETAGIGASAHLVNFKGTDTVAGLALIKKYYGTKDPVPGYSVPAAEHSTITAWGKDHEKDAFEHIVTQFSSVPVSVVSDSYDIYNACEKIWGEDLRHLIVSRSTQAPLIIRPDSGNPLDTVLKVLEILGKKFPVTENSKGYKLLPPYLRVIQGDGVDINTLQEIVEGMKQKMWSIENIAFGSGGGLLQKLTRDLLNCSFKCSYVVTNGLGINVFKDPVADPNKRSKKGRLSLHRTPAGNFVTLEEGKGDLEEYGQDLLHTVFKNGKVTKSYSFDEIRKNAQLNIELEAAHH
T2 sequence (P43490 whole entry H191R): as the sequence (P43490 whole entry S165F) above, with F165S, H191R counted along it
T1 sequence (P43490 whole entry): as the sequence (P43490 whole entry S165F) above, with F165S counted along it
T4 sequence (P43490 whole entry G217A): as the sequence (P43490 whole entry S165F) above, with F165S, G217A counted along it
T7 sequence (P43490 whole entry S165Y): as the sequence (P43490 whole entry S165F) above, with F165Y counted along it
T3 sequence (P43490 whole entry G217R): as the sequence (P43490 whole entry S165F) above, with F165S, G217R counted along it
T5 sequence (P43490 whole entry G217V): as the sequence (P43490 whole entry S165F) above, with F165S, G217V counted along it

Row | SMILES | IC50 [1] | IC50 [2] | IC50 [3] | IC50 [4] | IC50 [5] | IC50 [6] | IC50 [7] | Sensitivity compared to wild-type NAMPT expression [8] | Sensitivity compared to wild-type NAMPT expression [9] | further results
1 | O=C(NCc1ccc(S(=O)(=O)c2cccc(C(F)(F)F)c2)cc1)c1cc2cnccc2s1 [compound 2] | 5 nM | 2170 nM | > 5000 nM | 191 nM | > 5000 nM | 15 nM | 21 nM | – | – | –
2 | N#CN=C(NCCCCCCOc1ccc(Cl)cc1)Nc1ccncc1 [compound 9] | – | – | – | – | – | – | – | more modest | more modest | –
3 | O=C(/C=C/c1cccnc1)NCCCCC1CCN(C(=O)c2ccccc2)CC1 [compound 11] | – | – | – | – | – | – | – | more modest | more modest | –
4 | O=C(NCc1ccc(S(=O)(=O)c2cccc(C(F)(F)F)c2)cc1)c1cnc2[nH]ncc2c1 [compound 1] | – | – | – | – | – | – | – | diminished sensitivity | diminished sensitivity | Tumor growth inhibition [10]: 54%; Response of tumor xenografts to treatment [11]: completely resistant; IC50 [12]: 197 ± 6 nM; IC50 in the presence or absence of 10 µM NA [13]: not significantly different; Tolerability (weight loss, morbidity, mortality) [14]: well tolerated; IC50 [15]: 2 ± 0.2 nM; IC50 [16]: 9 ± 0.4 nM; IC50 [17]: 34 ± 2 nM; Shift in IC50 vs parental [18]: less than 100 fold; Shift in IC50 vs parental [19]: less than 100 fold; Increase in IC50 vs parental [20]: ≥ 100 fold; Reduction of cellular NAD [21]: less than 90%

More lines, main results first:

Row | IC50 [1] | IC50 [2] | IC50 [3] | IC50 [4] | IC50 [5] | IC50 [6] | IC50 [7] | SMILES | Sensitivity compared to wild-type NAMPT expression [8] | Sensitivity compared to wild-type NAMPT expression [9] | further results
5 | 26 nM | > 5000 nM | > 5000 nM | > 5000 nM | > 5000 nM | 175 nM | 148 nM | O=C(NCc1ccc(S(=O)(=O)c2ccc(N3CCOCC3)nc2)cc1)c1cnc2[nH]ncc2c1 [compound 6] | – | – | –
6 | 7 nM | > 5000 nM | > 5000 nM | 2050 nM | 3380 nM | 42 nM | 115 nM | CCN(C)c1ncc(S(=O)(=O)c2ccc(CNC(=O)c3cnc4[nH]ncc4c3)cc2)s1 [compound 7] | – | – | –
7 | 80 nM | > 5000 nM | > 5000 nM | > 5000 nM | 4160 nM | 1930 nM | 2530 nM | O=C(NCc1ccc(S(=O)(=O)c2ccccc2)cc1)c1cnc2[nH]ncc2c1 [compound 4] | – | – | –
